From patent US4778824A, “Method for suppressing a transplantation immunity and treating an allergic disease and an autoimmune disease” (Zaidan Hojin Biseibutsu Kagaku Kenkyu Kai, priority 1984, dated 1988)
Where a name gives a salt, the structure may show the parent alone.

Legend:
Allokiller T-lymphocyte = assay: Inhibition of allokiller T-lymphocyte genesis (51Cr release from P815 mastocytoma); type: in vivo, C 57 BL/b mice
Procedure: 3×10^7 P815 mastocytoma cells were administered intraperitoneally to C 57 BL/b mice (10 wk old). Twelve days later, spleen cels were isolated and used as effector cells (E). Target cells (T) which were ^51 Cr labelled P815 mastocytoma cells were challenged by the effector cells at varying E/T ratios and the allokiller activity was assayed in terms of the percentage release ^51 Cr. Spergualin was administered for nine consecutive days starting on the day following the transplantation or a single administration was made on the 9th day.

[1] = tested on: graft-versus-host disease; assay: Delay of graft-versus-host disease in irradiated CBA mice transplanted with C57BL/6 bone marrow cells and spleen cells; type: in vivo; details: Donor C57BL/6, 10 days
Procedure: Female CBA mice of 9 week-old and female C57BL/6 mice of 9 week-old were used. A group consisted of 10 mice. Bone marrow cells (10^7) and spleen cells (5×10^6) from CBA mice and C57BL/6 mice were injected i.v. into the whole body irradiation (850 rad) CBA mice. Spergualin was administered i.p. once a day for 10 days starting on one day after the injection of bone marrow cells and spleen cells. The data is indicated as the median survival time.

T-lymphocyte = assay: Inhibition of Con A-induced reaction of T-lymphocyte blastogenesis (3H-thymidine uptake, BALB/c spleen cells); type: cell-based, BALB/c mice; details: Con A 5 μg/ml, 72 h; for ^3 H--thymidine uptake: ± S.D.
Procedure: (§1) The present inventors conducted tests to evaluate the actions of spergualin against the reaction of lymphocyte blastogenesis in accordance with the method of Waithe et al. (Waithe et al., Handbook of Experimental Immunology, page 26.1, 1978).
(§2) Spleen cells from BALB/c mice were distritubed among wells in a microplate so that each well contained 2×10^5 cells/0.2 ml. The compound was added to all wells but one, the latter being used as a control. Con A (5 μg/ml) was added to all the wells and the so prepared cell suspensions were cultivated in a 5% CO2 incubator for 72 hours at 37° C. Eight hours before the completion of the incubation, 1 μCi of ^3 H-thymidine was added to each well and the uptake of the thymidine by the cultured cells was measured with a liquid scintillation counter to estimate the progress of the reaction of T-lymphocyte blastogenesis. The percentage inhibition of the blastogenesis by the test compound was calculated by: […] wherein Adpm indicates the uptake count for the addition of only Con A and Bdpm, the count for the addition of both Con A and the test compound.

IgG antibody production = assay: Inhibition of IgG antibody production against sheep red blood cells (plaque-forming cells); type: in vivo, CDF 1 mice; details: 50 mg/kg/day i.p.; for IgG plaque forming cell count: ± S.D., significant (P < 0.0001); for inhibition at 50 mg/kg/day: Mus musculus, Erythrocyte, ip, IgG
Procedure: CDF 1 mice (6-10 wk old, female) were immunized by intravenous injection of 1×10^8 sheep red blood cells. The mice were intraperitoneally administered 50 mg/kg/day of the test compound for a period of 4 days starting on the day following the immunization or 3 days after that day. Seven days after the sensitization, spleen cells were isolated and the number of IgG plaque forming cells was counted by a known method (Yata et al., supra). As in Experiment 3, the percentage inhibition of IgG antibody production was determined.

B-lymphocyte = assay: Inhibition of LPS-induced reaction of B-lymphocyte blastogenesis (3H-thymidine uptake); type: cell-based, BALB/c mice; details: LPS 100 μg/ml; for ^3 H--thymidine uptake: ± S.D.
Procedure: as §1, §2
The uptake of ^3 H-thymidine by B-cell was measured in accordance with the method used in Experiment 1, except that the inducer Con A was replaced by 100 μg/ml of LPS from E. coli. The percentage inhibition of blastogenesis by the test compound was also determined by the same method as used in Experiment 1.

[2] = tested on: experimental aplastic anemia; assay: Effect on experimental aplastic anemia in mice; type: in vivo, C3H/HeN mice; details: 10 days; for MST (mean survival time): ± S.D.
Excerpt: Female C3H/HeN mice (Mls^c) of 10 week-old and female CBA mice (Mls^d) of 10 week-old were used. A group consisted of 10 mice. CBA lymph node cells (10^7) were i.v. into C3H/HeN mice after being subjected to 600 rads of whole-body X-irradiation, spergualin was given i.p. once a day for 10 days. The data is indicated as the mean survival time ±S.D.

[3] = tested on: acute experimental allergic encephalomyelitis; assay: Effect on acute experimental allergic encephalomyelitis; type: in vivo, strain 13 guinea pigs; details: 2 weeks, with S.D.
Procedure: Male strain 13 guinea pigs were used. A group consisted of 5 guinea pigs. An aqueous suspension of 50% syngeneic spinal cord homogenate was emulsified in an equal volume of complete Freund's adjuvant containing M. tuberculosis at 20 mg/ml. The antigen emulsion (0.1 ml) was injected both hindfootpads of a guinea pig. Spergualin was administered i.p. for 2 weeks at 0.78 and 1.56 mg/kg.

[4] = Exp. 1, 3.13 mg/kg i.p. once a day
[5] = Exp. 2, 6.25 mg/kg i.p. once a day
[6] = Exp. 2, 25.0 mg/kg i.p. once a day
[7] = Exp. 2, 50.0 mg/kg i.p. once a day

**Q.** How did the “Percent release of ^51 Cr” value (Allokiller T-lymphocyte; 5 mg/kg/day, days 1-9 after transplantation, E/T ratio 5) turn out when `N=C(N)NCCCCC(O)CC(=O)NC(O)C(=O)NCCCCNCCCN` (centres unmarked) [spergualin (trihydrochloride)] was run?
**A.** The value was 6%.

**Q.** What about the “Percent release of ^51 Cr” value (Allokiller T-lymphocyte; 5 mg/kg/day, days 1-9 after transplantation, E/T ratio 10) of the same molecule?
**A.** The value was 8%.

**Q.** And the “Percent release of ^51 Cr” value (Allokiller T-lymphocyte; 5 mg/kg/day, days 1-9 after transplantation, E/T ratio 20)?
**A.** The value was 17%.

**Q.** What about the “Percent release of ^51 Cr” value (Allokiller T-lymphocyte; 50 mg/kg, single administration day 9, E/T ratio 5) of the same molecule?
**A.** The value was 21%.

**Q.** What about the “Percent release of ^51 Cr” value (Allokiller T-lymphocyte; 50 mg/kg, single administration day 9, E/T ratio 10) of the same molecule?
**A.** Its value is 30%.

**Q.** And the “Percent release of ^51 Cr” value (Allokiller T-lymphocyte; 50 mg/kg, single administration day 9, E/T ratio 20)?
**A.** Its value is 51%.

**Q.** And the “Percent release of ^51 Cr” value (Allokiller T-lymphocyte; 50 mg/kg/day, days 1-9 after transplantation, E/T ratio 5)?
**A.** The value was 0%.

**Q.** And the “Percent release of ^51 Cr” value (Allokiller T-lymphocyte; 50 mg/kg/day, days 1-9 after transplantation, E/T ratio 10)?
**A.** Its value is 0%.

**Q.** What about the “Percent release of ^51 Cr” value (Allokiller T-lymphocyte; 50 mg/kg/day, days 1-9 after transplantation, E/T ratio 20) of the same molecule?
**A.** The value was 1%.

**Q.** What about the “80-day survivors, Survivors/Total” value ([1]; 3.13 mg/kg i.p. once a day) of the same molecule?
**A.** The value was 2/10.

**Q.** What about the “MST (median survival time)” value ([1]; 3.13 mg/kg i.p. once a day) of the same molecule?
**A.** The value was 33.0 days.

**Q.** And the “80-day survivors, Survivors/Total” value ([1]; 6.25 mg/kg i.p. once a day)?
**A.** Its value is 3/10.

**Q.** And the “MST (median survival time)” value ([1]; 6.25 mg/kg i.p. once a day, P < 0.05)?
**A.** Its value is 45.3 days.

**Q.** And the “80-day survivors, Survivors/Total” value ([1]; 12.5 mg/kg i.p. once a day)?
**A.** Its value is 4/10.

**Q.** And the “MST (median survival time)” value ([1]; 12.5 mg/kg i.p. once a day, P < 0.01)?
**A.** Its value is 55.0 days.

**Q.** What about the “80-day survivors, Survivors/Total” value ([1]; 25.0 mg/kg i.p. once a day) of the same molecule?
**A.** Its value is 9/10.

**Q.** And the “MST (median survival time)” value ([1]; 25.0 mg/kg i.p. once a day, P < 0.01)?
**A.** The value was > 80.0 days.

**Q.** And the “^3 H--thymidine uptake” value (T-lymphocyte; 10 μg/ml)?
**A.** The value was 30,214 ± 25,033 dpm.

**Q.** What about the “^3 H--thymidine uptake” value (T-lymphocyte; 100 μg/ml) of the same molecule?
**A.** Its value is 788 ± 182 dpm.

**Q.** And the inhibition at 10 µg/mL (T-lymphocyte; Mus musculus, T-lymphocyte, 10 μg/ml)?
**A.** The inhibition at 10 µg/mL was 76.7%.

**Q.** And the inhibition at 100 µg/mL (T-lymphocyte; Mus musculus, T-lymphocyte, 100 μg/ml)?
**A.** The inhibition at 100 µg/mL was 99.4%.

**Q.** And the “IgG plaque forming cell count” value (IgG antibody production; days 1-4 after sensitization)?
**A.** The value was 17 ± 16 cells/10^6 spleen cells.

**Q.** What about the “IgG plaque forming cell count” value (IgG antibody production; days 3-6 after sensitization) of the same molecule?
**A.** Its value is 19 ± 15 cells/10^6 spleen cells.

**Q.** What about the inhibition at 50 mg/kg/day (IgG antibody production; days 1-4 after sensitization) of the same molecule?
**A.** Its inhibition at 50 mg/kg/day is 96.7%.

**Q.** What about the inhibition at 50 mg/kg/day (IgG antibody production; days 3-6 after sensitization) of the same molecule?
**A.** Its inhibition at 50 mg/kg/day is 96.3%.

**Q.** What about the “^3 H--thymidine uptake” value (B-lymphocyte; 10 μg/ml) of the same molecule?
**A.** Its value is 38,842 ± 21,573 dpm.

**Q.** What about the “^3 H--thymidine uptake” value (B-lymphocyte; 100 μg/ml) of the same molecule?
**A.** Its value is 396 ± 216 dpm.

**Q.** And the inhibition at 10 µg/mL (B-lymphocyte; Mus musculus, 10 μg/ml)?
**A.** Its inhibition at 10 µg/mL is 83.4%.

**Q.** And the inhibition at 100 µg/mL (B-lymphocyte; Mus musculus, 100 μg/ml)?
**A.** Its inhibition at 100 µg/mL is 99.8%.

**Q.** What about the “30-day survivors, Survivors/Total” value [2, 4] of the same molecule?
**A.** Its value is 2/10.

**Q.** What about the “MST (mean survival time)” value [2, 4] of the same molecule?
**A.** Its value is 16.3 ± 8.1 days.

**Q.** And the “30-day survivors, Survivors/Total” value ([2]; Exp. 1, 6.25 mg/kg i.p. once a day)?
**A.** Its value is 6/10.

**Q.** What about the “MST (mean survival time)” value ([2]; Exp. 1, 6.25 mg/kg i.p. once a day, P < 0.05) of the same molecule?
**A.** Its value is 22.6 ± 9.7 days.

**Q.** And the “30-day survivors, Survivors/Total” value ([2]; Exp. 1, 12.5 mg/kg i.p. once a day)?
**A.** Its value is 10/10.

**Q.** What about the “MST (mean survival time)” value ([2]; Exp. 1, 12.5 mg/kg i.p. once a day, P < 0.01) of the same molecule?
**A.** Its value is 30.0 ± 0.0 days.

**Q.** What about the “30-day survivors, Survivors/Total” value ([2]; Exp. 1, 25.0 mg/kg i.p. once a day) of the same molecule?
**A.** Its value is 6/10.

**Q.** And the “MST (mean survival time)” value ([2]; Exp. 1, 25.0 mg/kg i.p. once a day, P < 0.05)?
**A.** Its value is 23.6 ± 8.6 days.

**Q.** What about the “30-day survivors, Survivors/Total” value [2, 5] of the same molecule?
**A.** Its value is 3/10.

**Q.** And the “MST (mean survival time)” value [2, 5]?
**A.** Its value is 20.2 ± 8.4 days.

**Q.** What about the “30-day survivors, Survivors/Total” value ([2]; Exp. 2, 12.5 mg/kg i.p. once a day) of the same molecule?
**A.** Its value is 6/10.

**Q.** And the “MST (mean survival time)” value ([2]; Exp. 2, 12.5 mg/kg i.p. once a day, P < 0.05)?
**A.** The value was 23.0 ± 9.4 days.

**Q.** And the “30-day survivors, Survivors/Total” value [2, 6]?
**A.** Its value is 4/10.

**Q.** And the “MST (mean survival time)” value [2, 6]?
**A.** Its value is 20.7 ± 8.5 days.

**Q.** What about the “30-day survivors, Survivors/Total” value [2, 7] of the same molecule?
**A.** The value was 0/10.

**Q.** And the “MST (mean survival time)” value [2, 7]?
**A.** The value was 12.6 ± 3.9 days.

**Q.** What about the Mean survival time ([3]; 0.78 mg/kg i.p.) of the same molecule?
**A.** The Mean survival time was 15.2 ± 1.8 days.

**Q.** And the Mean survival time ([3]; 1.56 mg/kg i.p., P < 0.01)?
**A.** The Mean survival time was 23.6 ± 9.2 days.
